In ChEMBL document CHEMBL1148246, “Differential modulation of the antifungal activity of amphotericin B by natural and ent-cholesterol” (2004):
Values joined by “and” are separate entries in the source; they are usually repeats but may differ in a detail not shown here. Equal values may be shown once.

Legend:
Format in all cases: functional
[1] = tested on: Candida albicans; assay: Residual antifungal activity of amphotericine B was determined against Candida albicans after addition of 60 ppm of cholesterol to the culture
[2] = tested on: Candida albicans; assay: Reduction in antifungal activity of amphotericine B was determined against Candida albicans after addition of 60 ppm of cholesterol to the culture
[3] = tested on: Candida albicans; assay: Reduction in antifungal activity of amphotericine B was determined against Candida albicans after addition of 60 ppm of compound to the culture
[4] = tested on: Candida albicans; assay: Residual antifungal activity of amphotericine B was determined against Candida albicans after addition of 30 ppm of ent-cholesterol to the culture; (Range 14-24 mm)

C[C@@H]1[C@H](O)[C@@H](C)/C=C/C=C/C=C/C=C/C=C/C=C/C=C/[C@H](O[C@@H]2O[C@H](C)[C@@H](O)[C@H](N)[C@@H]2O)C[C@@H]2O[C@](O)(C[C@@H](O)C[C@@H](O)[C@H](O)CC[C@@H](O)C[C@@H](O)CC(=O)O[C@H]1C)C[C@H](O)[C@H]2C(=O)O [AMPHOTERICIN B]
Antifungal activity [1]: 73%
Antifungal activity [2]: 82%
Antifungal activity [3]: 76% and 62%
Antifungal activity [4]: 87%
